From ChEMBL document CHEMBL1201862, “PubChem BioAssay data set” (2004)
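Briefly, cells in 96-well plates were exposed to five compound concentrations for 48 h, and endpoints were estimated by linear interpolation. At the GI50, growth is halved.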 Calls of active or inactive are those of the source. Cut-off read from the data, not from the text of the source: active = GI50 up to about 1.1 µM and inactive = higher.

Tests used:
Experiment in all cases: growth of human tumour cells (NCI), 48 h
[1] = system: RPMI-8226
[2] = system: NCI-H460
[3] = system: HCT-116
[4] = system: SNB-19
[5] = system: LOX IMVI
[6] = system: Malme-3M
[7] = system: 786-0
[8] = system: M14
[9] = system: NCI-H522
[10] = system: K562
[11] = system: UACC-257
[12] = system: NCI-H23
[13] = system: SNB-75
[14] = system: A498
[15] = system: SK-MEL-2
[16] = system: HOP-92

Measured: GI50

O=C1C=C/C(=N\c2ccc3c(c2)C(Br)c2ccccc2-3)O1 (stereo unspecified)
inactive: [1] 68.2 µM | [2] > 100 µM | [3] > 100 µM | [4] > 100 µM | [5] 45.6 µM | [6] > 100 µM | [7] 29 µM | [8] > 100 µM | [9] 25.9 µM | [10] 42.8 µM | [11] > 100 µM | [12] > 100 µM | [13] > 100 µM

CC1(C)Cc2cc(C(=O)O)c3c(c2C1=O)COCC3
inactive: [1] > 100 µM | [2] > 100 µM | [3] > 100 µM | [4] > 100 µM | [5] > 100 µM | [14] > 100 µM | [6] > 100 µM | [7] > 100 µM | [15] > 100 µM | [8] > 100 µM | [9] 32.4 µM | [10] > 100 µM | [11] > 100 µM | [12] > 100 µM | [13] > 100 µM

NCP(=O)(O)OCC(=O)O
inactive: [16] > 100 µM | [2] > 100 µM | [3] > 100 µM | [4] > 100 µM | [5] > 100 µM | [14] > 100 µM | [6] > 100 µM | [7] > 100 µM | [15] > 100 µM | [8] > 100 µM | [9] > 100 µM | [10] > 100 µM | [11] > 100 µM | [12] > 100 µM | [13] > 100 µM

COc1ccc(/C=C2\CNC/C(=C\c3ccc(OC)cc3)C2=O)cc1
inactive: [16] 56.9 µM | [1] 15.6 µM | [2] 47.9 µM | [3] 3.24 µM | [4] 80.2 µM | [5] 4.22 µM | [6] > 100 µM | [7] 46.3 µM | [15] > 100 µM | [8] > 100 µM | [10] 14.7 µM | [11] 75.3 µM | [12] 15.8 µM | [13] 30.4 µM

ON/N=C/c1cc2c(cc1Br)OCO2
inactive: [16] 144 µM | [1] > 386 µM | [2] > 386 µM | [3] > 386 µM | [4] > 386 µM | [5] > 386 µM | [6] > 386 µM | [7] > 386 µM | [15] > 386 µM | [9] 230 µM | [10] > 386 µM | [11] > 386 µM | [12] > 386 µM

CC(C)(C)C1CCC2c3c([nH]c4ccccc34)C3C(=O)N(c4ccccc4)C(=O)C3C2C1 (stereo unspecified)
inactive: [1] 7.78 µM | [2] 3.7 µM | [4] 6.59 µM | [5] 3.79 µM | [14] 2.5 µM | [6] 2.4 µM | [7] 7.14 µM | [8] 4.43 µM | [10] 4.36 µM | [12] 12 µM | [13] 2.85 µM

C[C@@]1(CBr)C[C@@](C)(/C=C/Cl)[C@@H](Cl)C[C@H]1Cl
inactive: [16] 13.6 µM | [3] 7.03 µM | [4] 13.5 µM | [5] 11.5 µM | [14] 16.9 µM | [6] 16.4 µM | [7] 14 µM | [15] 2.74 µM | [8] 15.5 µM | [9] 3.31 µM | [10] 4.74 µM | [11] 11.4 µM | [12] 13.3 µM | [13] 16.1 µM

CCn1c2c(c3ccccc31)C(c1ccccc1)CC1C(=O)N(c3ccccc3)C(=O)C21 (stereo unspecified)
inactive: [16] 26.2 µM | [2] 54.1 µM | [3] 55 µM | [4] 50.5 µM | [5] > 100 µM | [14] 5.78 µM | [6] 24 µM | [7] 21 µM | [15] 61 µM | [8] > 100 µM | [9] 72.8 µM | [10] 89.5 µM | [11] > 100 µM | [12] > 100 µM | [13] 17.6 µM

Cc1nnc(N/N=C2\C(=O)Nc3ccccc32)n1N
inactive: [1] > 100 µM | [2] > 100 µM | [3] > 100 µM | [4] > 100 µM | [5] > 100 µM | [14] > 100 µM | [6] > 100 µM | [7] > 100 µM | [15] > 100 µM | [8] > 100 µM | [9] > 100 µM | [10] 29.6 µM | [11] > 100 µM | [12] > 100 µM | [13] > 100 µM

CN(C(=O)C12C3C4C1C1C2C3C41C#N)C(C)(C)C (stereo unspecified)
inactive: [1] > 100 µM | [2] > 100 µM | [3] > 100 µM | [4] > 100 µM | [5] > 100 µM | [14] > 100 µM | [6] > 100 µM | [7] > 100 µM | [15] > 100 µM | [8] > 100 µM | [9] > 100 µM | [10] > 100 µM | [11] > 100 µM | [12] > 100 µM | [13] 69.2 µM

COc1ccccc1/C=C1\C(=O)N(C(=O)c2ccc(NC(C)=O)cc2)N=C1C
inactive: [1] > 100 µM | [2] > 100 µM | [3] > 100 µM | [4] > 100 µM | [5] > 100 µM | [6] > 100 µM | [7] > 100 µM | [15] > 100 µM | [9] > 100 µM | [10] > 100 µM | [11] > 100 µM | [12] > 100 µM | [13] > 100 µM

CC(C)(C)c1cc(CCCCCCCC2(CCCCCCCc3cc(C(C)(C)C)cc(C(C)(C)C)c3)OC(COCCOCCCCCC#N)C(COCCOCCCCCC#N)O2)cc(C(C)(C)C)c1 (stereo unspecified)
inactive: [16] > 100 µM | [2] > 100 µM | [3] > 100 µM | [4] > 100 µM | [5] > 100 µM | [14] > 100 µM | [6] > 100 µM | [7] > 100 µM | [15] > 100 µM | [8] > 100 µM | [9] > 100 µM | [10] > 100 µM | [11] > 100 µM | [12] > 100 µM | [13] > 100 µM

C#CC1(O)CCC2[C@@H]3CCc4cc(Oc5nc(F)nc(-c6c7ccccc7c(SCC)n6CCC)n5)ccc4C3CC[C@@]21C (stereo partly specified)
inactive: [16] > 100 µM | [1] 57.3 µM | [2] > 100 µM | [3] 29.2 µM | [5] 76 µM | [14] > 100 µM | [6] > 100 µM | [7] > 100 µM | [15] 19.9 µM | [8] 40.5 µM | [9] > 10 µM | [10] 51.4 µM | [11] > 100 µM | [12] 25 µM

COc1cc(OC)c2c(=O)cc(-c3ccc(OC)c(OC)c3OC)oc2c1
inactive: [16] 37 µM | [1] > 100 µM | [3] > 100 µM | [4] > 100 µM | [5] > 100 µM | [6] > 100 µM | [7] 38.5 µM | [15] 60.1 µM | [8] > 100 µM | [9] 38.9 µM | [10] > 100 µM | [11] > 100 µM | [12] > 100 µM | [13] 6.95 µM
